What is called IC50 is the concentration at which inhibition is half-maximal. A word on the inhibition: it is how much of the control response was suppressed.

Molecules are shown by their SMILES.

Chain of human Cav2.2 (Q00975 whole entry): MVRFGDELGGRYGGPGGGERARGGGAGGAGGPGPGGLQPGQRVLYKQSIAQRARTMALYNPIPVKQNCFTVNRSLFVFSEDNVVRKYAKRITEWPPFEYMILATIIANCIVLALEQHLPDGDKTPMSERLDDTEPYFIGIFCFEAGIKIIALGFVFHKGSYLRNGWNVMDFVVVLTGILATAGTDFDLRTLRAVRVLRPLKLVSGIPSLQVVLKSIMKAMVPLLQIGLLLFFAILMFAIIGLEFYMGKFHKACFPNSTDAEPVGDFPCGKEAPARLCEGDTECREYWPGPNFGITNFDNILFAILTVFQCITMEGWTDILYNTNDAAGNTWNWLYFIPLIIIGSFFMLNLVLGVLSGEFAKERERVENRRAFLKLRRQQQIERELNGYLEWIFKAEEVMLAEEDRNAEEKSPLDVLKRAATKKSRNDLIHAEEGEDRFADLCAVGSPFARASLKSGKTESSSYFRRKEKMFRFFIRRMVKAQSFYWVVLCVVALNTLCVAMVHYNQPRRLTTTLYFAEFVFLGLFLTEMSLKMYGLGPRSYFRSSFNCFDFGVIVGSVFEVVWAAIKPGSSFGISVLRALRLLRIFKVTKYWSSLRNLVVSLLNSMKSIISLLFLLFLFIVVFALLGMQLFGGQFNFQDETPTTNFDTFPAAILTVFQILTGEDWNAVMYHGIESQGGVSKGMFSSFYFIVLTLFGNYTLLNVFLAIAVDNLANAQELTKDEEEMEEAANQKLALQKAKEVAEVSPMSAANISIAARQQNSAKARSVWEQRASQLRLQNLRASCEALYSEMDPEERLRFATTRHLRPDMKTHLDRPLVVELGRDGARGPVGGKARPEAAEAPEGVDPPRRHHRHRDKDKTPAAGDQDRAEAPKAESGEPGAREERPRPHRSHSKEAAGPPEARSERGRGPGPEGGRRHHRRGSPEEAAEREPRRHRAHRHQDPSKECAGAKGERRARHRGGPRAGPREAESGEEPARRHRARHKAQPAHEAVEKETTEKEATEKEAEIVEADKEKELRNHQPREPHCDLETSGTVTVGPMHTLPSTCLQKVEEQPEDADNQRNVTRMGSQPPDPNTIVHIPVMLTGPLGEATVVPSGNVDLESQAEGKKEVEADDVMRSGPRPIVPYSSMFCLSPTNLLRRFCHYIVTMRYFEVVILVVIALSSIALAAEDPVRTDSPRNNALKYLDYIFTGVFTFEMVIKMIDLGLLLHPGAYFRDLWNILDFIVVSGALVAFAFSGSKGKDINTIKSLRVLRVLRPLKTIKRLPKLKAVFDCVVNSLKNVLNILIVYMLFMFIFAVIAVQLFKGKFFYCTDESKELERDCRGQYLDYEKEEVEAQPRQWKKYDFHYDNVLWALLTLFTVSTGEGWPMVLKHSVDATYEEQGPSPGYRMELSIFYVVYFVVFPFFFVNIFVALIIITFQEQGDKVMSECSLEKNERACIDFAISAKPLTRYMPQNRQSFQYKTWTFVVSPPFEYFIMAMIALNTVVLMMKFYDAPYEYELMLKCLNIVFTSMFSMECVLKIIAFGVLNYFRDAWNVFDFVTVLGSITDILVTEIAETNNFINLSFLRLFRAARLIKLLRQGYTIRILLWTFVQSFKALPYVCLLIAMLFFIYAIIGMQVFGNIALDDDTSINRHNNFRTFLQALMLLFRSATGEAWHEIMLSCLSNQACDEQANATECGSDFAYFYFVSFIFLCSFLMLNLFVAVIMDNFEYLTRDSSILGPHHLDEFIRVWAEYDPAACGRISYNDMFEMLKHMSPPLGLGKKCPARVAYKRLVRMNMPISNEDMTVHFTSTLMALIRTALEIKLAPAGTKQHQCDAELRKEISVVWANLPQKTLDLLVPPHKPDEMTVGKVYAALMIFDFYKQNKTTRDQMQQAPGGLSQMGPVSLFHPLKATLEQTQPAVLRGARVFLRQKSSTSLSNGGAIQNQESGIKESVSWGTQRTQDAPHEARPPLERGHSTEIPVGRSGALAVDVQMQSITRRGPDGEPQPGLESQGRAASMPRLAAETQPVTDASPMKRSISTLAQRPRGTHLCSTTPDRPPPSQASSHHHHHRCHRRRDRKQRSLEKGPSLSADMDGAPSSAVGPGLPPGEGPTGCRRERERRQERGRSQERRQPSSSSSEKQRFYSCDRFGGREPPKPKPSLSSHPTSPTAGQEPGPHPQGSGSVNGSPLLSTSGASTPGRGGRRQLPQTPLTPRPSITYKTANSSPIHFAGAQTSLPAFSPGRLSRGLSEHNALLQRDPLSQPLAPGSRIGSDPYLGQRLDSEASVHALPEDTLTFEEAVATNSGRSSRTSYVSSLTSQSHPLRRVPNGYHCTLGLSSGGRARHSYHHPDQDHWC
Chain of human Cav2.2 (P54289 25-946 partner limits assumed): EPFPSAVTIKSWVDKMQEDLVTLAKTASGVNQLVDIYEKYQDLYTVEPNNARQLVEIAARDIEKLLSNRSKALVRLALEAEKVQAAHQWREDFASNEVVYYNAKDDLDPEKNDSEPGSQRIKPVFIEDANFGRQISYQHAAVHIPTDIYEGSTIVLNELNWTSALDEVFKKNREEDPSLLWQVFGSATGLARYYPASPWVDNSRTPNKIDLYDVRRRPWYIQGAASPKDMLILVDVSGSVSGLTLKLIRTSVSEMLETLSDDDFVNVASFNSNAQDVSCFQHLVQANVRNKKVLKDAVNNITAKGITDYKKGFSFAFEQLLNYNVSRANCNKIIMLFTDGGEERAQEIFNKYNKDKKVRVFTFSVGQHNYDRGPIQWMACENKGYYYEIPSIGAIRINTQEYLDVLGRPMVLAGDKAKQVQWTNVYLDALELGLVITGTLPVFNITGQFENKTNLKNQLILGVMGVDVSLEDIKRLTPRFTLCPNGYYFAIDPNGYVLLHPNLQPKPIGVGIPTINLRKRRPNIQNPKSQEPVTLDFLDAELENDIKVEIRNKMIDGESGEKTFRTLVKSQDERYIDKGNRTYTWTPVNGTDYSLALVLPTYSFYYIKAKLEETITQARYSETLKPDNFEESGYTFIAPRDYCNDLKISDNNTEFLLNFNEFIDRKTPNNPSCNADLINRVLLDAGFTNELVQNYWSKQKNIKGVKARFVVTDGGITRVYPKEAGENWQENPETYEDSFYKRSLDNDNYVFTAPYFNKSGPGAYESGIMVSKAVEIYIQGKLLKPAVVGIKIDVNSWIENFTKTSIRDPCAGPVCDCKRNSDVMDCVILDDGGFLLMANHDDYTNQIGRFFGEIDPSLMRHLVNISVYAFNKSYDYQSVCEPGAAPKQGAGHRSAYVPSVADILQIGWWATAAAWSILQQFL
Chain of human Cav2.2 (P54289 947-1103 partner limits assumed): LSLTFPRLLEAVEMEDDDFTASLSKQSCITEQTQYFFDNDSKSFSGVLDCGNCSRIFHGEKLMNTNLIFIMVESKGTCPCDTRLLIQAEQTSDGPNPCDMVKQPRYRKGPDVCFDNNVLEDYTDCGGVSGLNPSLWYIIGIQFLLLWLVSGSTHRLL
Chain of human Cav2.2 (P54284 whole entry partner): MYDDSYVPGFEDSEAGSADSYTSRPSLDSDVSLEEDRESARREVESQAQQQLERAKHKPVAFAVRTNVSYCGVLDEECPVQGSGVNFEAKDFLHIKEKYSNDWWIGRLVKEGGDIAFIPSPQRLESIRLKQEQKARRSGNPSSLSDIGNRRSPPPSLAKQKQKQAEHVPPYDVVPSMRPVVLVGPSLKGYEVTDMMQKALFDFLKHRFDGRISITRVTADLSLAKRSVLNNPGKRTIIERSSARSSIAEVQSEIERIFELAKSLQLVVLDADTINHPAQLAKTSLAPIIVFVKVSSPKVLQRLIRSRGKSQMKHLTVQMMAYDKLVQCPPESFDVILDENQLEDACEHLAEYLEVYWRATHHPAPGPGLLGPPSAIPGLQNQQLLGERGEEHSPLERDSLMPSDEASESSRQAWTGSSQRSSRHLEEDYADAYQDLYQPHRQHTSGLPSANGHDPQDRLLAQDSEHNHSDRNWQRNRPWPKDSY

The first test has as its target human Cav2.2 (Homo sapiens, UniProt Q00975). Briefly: Assessment of calcium channel activity using FLIPR (Ca2+ influx in IMR32 cells). Format: cell-based. To be noted: 3 minute pre-incubation with compound (*), 2 μM nifedipine, depolarized with 80 mM KCl. Here is the method: (i) In Vitro Methods—Assessment of Calcium Channel Activity Using FLIPR:
The IMR32 cells were maintained in MEM media containing 10% (v/v) FBS, 1% (v/v) antibiotic/antimitotic, 1% (v/v) sodium pyruvate and 1% (v/v) MEM NEAA. Following dissociation in 0.05% (v/v) trypsin/EDTA, cells were seeded into black 1×96-well plates (Corning Cellbind) at a density of 1-1.2×10^5 cells/well and incubated in the maintenance media above for 48 hours at 37° C. […] To determine the IC50 values, the percent inhibition of the compound at each concentration was determined relative to the activity in the absence of inhibitor, and data was fitted using non-linear regression sigmoidal dose response curve analysis with GraphPad Prism®.
Take `O=C(N[C@@H]1CC[C@H]2CNC[C@H]21)C(C1CCCCC1)C1CCCCC1` [Example 74, 2,2-dicyclohexyl-N-[(3aS,4R,6aR)-octahydrocyclopenta[c]pyrrol-4-yl]acetamide]: the IC50 worked out at 11200 nM. Consider `COc1ccc(CN2C[C@H]3CC[C@H](NC(=O)C(c4ccccc4)C(C)C)[C@H]3C2)cc1` (stereo partly drawn) [Example 96, N-[(3aR,4S,6aS)-2-(4-methoxybenzyl)octahydrocyclopenta[c]pyrrol-4-yl]-3-methyl-2-phenylbutanamide], for which the IC50 was 2400 nM.

In the case of `CC(C)C(C(=O)N[C@H]1CC[C@@H]2CN(Cc3cccc(C#N)c3)C[C@@H]21)c1ccccc1` (stereo partly drawn) [Example 97, N-[(3aR,4S,6aS)-2-(3-cyanobenzyl)octahydrocyclopenta[c]pyrrol-4-yl]-3-methyl-2-phenylbutanamide], the IC50 is 5300 nM.

Take `CC(C)C(C(=O)N[C@H]1CC[C@@H]2CN(Cc3ccc(C(F)(F)F)cc3)C[C@@H]21)c1ccccc1` (stereo partly drawn) [Example 98, 3-methyl-2-phenyl-N-{(3aR,4S,6aS)-2-[4-(trifluoromethyl)benzyl]octahydrocyclopenta[c]pyrrol-4-yl}butanamide]: the IC50 is 4900 nM. As for `CC(C)C(C(=O)N[C@H]1CC[C@@H]2CN(Cc3ccccc3C(F)(F)F)C[C@@H]21)c1ccccc1` (stereo partly drawn) [Example 99, 3-methyl-2-phenyl-N-{(3aR,4S,6aS)-2-[2-(trifluoromethyl)benzyl]octahydrocyclopenta[c]pyrrol-4-yl}butanamide], the IC50 was found to be 4800 nM. On to `CC(C)C(C(=O)N[C@H]1CC[C@@H]2CN(Cc3ccc(F)c(C(F)(F)F)c3)C[C@@H]21)c1ccccc1` (stereo partly drawn) [Example 100, N-{(3aR,4S,6aS)-2-[4-fluoro-3-(trifluoromethyl)benzyl]octahydrocyclopenta[c]pyrrol-4-yl}-3-methyl-2-phenylbutanamide], for which the IC50 is 4200 nM. For `CC(C)C(C(=O)N[C@H]1CC[C@@H]2CN(Cc3ccc(C(F)(F)F)c(F)c3)C[C@@H]21)c1ccccc1` (stereo partly drawn) [Example 101, N-{(3aR,4S,6aS)-2-[3-fluoro-4-(trifluoromethyl)benzyl]octahydrocyclopenta[c]pyrrol-4-yl}-3-methyl-2-phenylbutanamide], the IC50 amounted to 4700 nM. As to `CC(C)C(C(=O)N[C@H]1CC[C@@H]2CN(Cc3ccncc3)C[C@@H]21)c1ccccc1` (stereo partly drawn) [Example 103, 3-methyl-2-phenyl-N-[(3aR,4S,6aS)-2-(pyridin-4-ylmethyl)octahydrocyclopenta[c]pyrrol-4-yl]butanamide], the IC50 was determined as 31000 nM. The same measure, in the same setting: the value for `CC(C)C(C(=O)N[C@H]1CC[C@@H]2CN(CCCc3ccc(C(C)(C)C)cc3)C[C@@H]21)c1ccccc1` (stereo partly drawn) [Example 106, N-{(3aR,4S,6aS)-2-[3-(4-tert-butylphenyl)propyl]octahydrocyclopenta[c]pyrrol-4-yl}-3-methyl-2-phenylbutanamide] was 5800 nM. With `Cc1ccccc1CCCN1C[C@H]2CC[C@H](NC(=O)C(c3ccccc3)C(C)C)[C@H]2C1` (stereo partly drawn) [Example 108, 3-methyl-N-{(3aR,4S,6aS)-2-[3-(2-methylphenyl)propyl]octahydrocyclopenta[c]pyrrol-4-yl}-2-phenylbutanamide], the IC50 was determined as 11300 nM.

On to `CC(C)C(C(=O)N[C@H]1CC[C@@H]2CN(CCCc3cccc(Cl)c3)C[C@@H]21)c1ccccc1` (stereo partly drawn) [Example 109, N-{(3aR,4S,6aS)-2-[3-(3-chlorophenyl)propyl]octahydrocyclopenta[c]pyrrol-4-yl}-3-methyl-2-phenylbutanamide], for which the concentration for half-maximal inhibition (IC50) worked out at 9000 nM. On the same count and under the same terms, as for `Cc1cccc(CCCN2C[C@H]3CC[C@H](NC(=O)C(c4ccccc4)C(C)C)[C@H]3C2)c1` (stereo partly drawn) [Example 110, 3-methyl-N-{(3aR,4S,6aS)-2-[3-(3-methylphenyl)propyl]octahydrocyclopenta[c]pyrrol-4-yl}-2-phenylbutanamide], the figure is 2000 nM; as for `CC(C)C(C(=O)N[C@H]1CC[C@@H]2CN(CCCc3cccc(C(F)(F)F)c3)C[C@@H]21)c1ccccc1` (stereo partly drawn) [Example 111, 3-methyl-2-phenyl-N-((3aR,4S,6aS)-2-{3-[3-(trifluoromethyl)phenyl]propyl}octahydrocyclopenta[c]pyrrol-4-yl)butanamide], 2200 nM.

Regarding `CC(C)C(C(=O)N[C@H]1CC[C@@H]2CN(CCCc3cccc(F)c3)C[C@@H]21)c1ccccc1` (stereo partly drawn) [Example 112, N-{(3aR,4S,6aS)-2-[3-(3-fluorophenyl)propyl]octahydrocyclopenta[c]pyrrol-4-yl}-3-methyl-2-phenylbutanamide], the IC50 was 2800 nM.

With `CC(C)C(C(=O)N[C@H]1CC[C@@H]2CN(CCCCc3ccccc3)C[C@@H]21)c1ccccc1` (stereo partly drawn) [Example 113, 3-methyl-2-phenyl-N-[(3aR,4S,6aS)-2-(4-phenylbutyl)octahydrocyclopenta[c]pyrrol-4-yl]butanamide], the 50% inhibitory concentration (IC50) was determined as 3100 nM.

The test is the same for the next values; noted with them: 60 minute pre-incubation with compound, 2 μM nifedipine, depolarized with 80 mM KCl.
On to `O=C(N[C@H]1CC[C@H]2CN(CCCc3ccc(F)cc3)C[C@H]21)C(C1CCCCC1)C1CCCCC1` [Example 71, 2,2-dicyclohexyl-N-{(3aS,4S,6aR)-2-[3-(4-fluorophenyl)propyl]octahydrocyclopenta[c]pyrrol-4-yl}acetamide], for which the IC50 was 1200 nM. Regarding `O=C(N[C@@H]1CC[C@H]2CN(CCCCCC(c3ccc(F)cc3)c3ccc(F)cc3)C[C@H]21)C(C1CCCCC1)C1CCCCC1` [Example 78, N-{(3aS,4R,6aR)-2-[6,6-bis(4-fluorophenyl)hexyl]octahydrocyclopenta[c]pyrrol-4-yl}-2,2-dicyclohexylacetamide], the IC50 is 400 nM. In the case of `CC(C)C(C(=O)N[C@H]1CC[C@@H]2CN(CCCc3ccccc3)C[C@@H]21)c1ccccc1` (stereo partly drawn) [Example 105, 3-methyl-2-phenyl-N-[(3aR,4S,6aS)-2-(3-phenylpropyl)octahydrocyclopenta[c]pyrrol-4-yl]butanamide], the IC50 came out at 1500 nM.

For `CC(C)C(C(=O)N[C@H]1CC[C@@H]2CN(CCCc3ccc(C(F)(F)F)cc3)C[C@@H]21)c1ccccc1` (stereo partly drawn) [Example 115, 3-methyl-2-phenyl-N-((3aR,4S,6aS)-2-{3-[4-(trifluoromethyl)phenyl]propyl}octahydrocyclopenta[c]pyrrol-4-yl)butanamide], the IC50 came to 1200 nM.

In the case of `O=C(N[C@H]1CC[C@H]2CN(Cc3cccc(C(F)(F)F)c3)C[C@H]21)C(O)(C1CCCCC1)C1CCCCC1` [Example 152, 2,2-dicyclohexyl-2-hydroxy-N-{(3aS,4S,6aR)-2-[3-(trifluoromethyl)benzyl]octahydrocyclopenta[c]pyrrol-4-yl}acetamide], the IC50 was 800 nM. Turning to `CC(C)C[C@@H](C(=O)N[C@H]1CC[C@H]2CN(Cc3cccc(C(F)(F)F)c3)C[C@H]21)N(C)C(=O)OC(C)(C)C` [Example 153, N^2-(tert-butyloxycarbonyl)-N^2-methyl-N^1-{(3aS,4S,6aR)-2-[3-(trifluoromethyl)benzyl]octahydrocyclopenta[c]pyrrol-4-yl}-L-leucinamide], the IC50 was 400 nM. Turning to `CC(=O)N(C)[C@@H](CC(C)C)C(=O)N[C@H]1CC[C@H]2CN(Cc3cccc(C(F)(F)F)c3)C[C@H]21` [Example 175, N^2-acetyl-N^2-methyl-N^1-{(3aS,4S,6aR)-2-[3-(trifluoromethyl)benzyl]octahydrocyclopenta[c]pyrrol-4-yl}-L-leucinamide], the IC50 stood at 1500 nM. Same read-out and setting: the value for `O=S(=O)(N[C@@H]1CC[C@@H]2CN(Cc3cccc(C(F)(F)F)c3)C[C@@H]21)c1cccc(C(F)(F)F)c1` [Example 188, 3-(trifluoromethyl)-N-{(3aR,4R,6aS)-2-[3-(trifluoromethyl)benzyl]octahydrocyclopenta[c]pyrrol-4-yl}benzenesulfonamide] was 800 nM.

As to `O=S(=O)(N[C@@H]1CC[C@H]2CN(Cc3ccccc3)C[C@H]21)c1cccc(C(F)(F)F)c1` [Example 190, N-[(3aS,4R,6aR)-2-benzyloctahydrocyclopenta[c]pyrrol-4-yl]-3-(trifluoromethyl)benzenesulfonamide], the IC50 worked out at 1300 nM. For the compound `O=S(=O)(N[C@@H]1CC[C@H]2CN(Cc3ccc(C(F)(F)F)c(F)c3)C[C@H]21)c1cccc(C(F)(F)F)c1` [Example 194, N-{(3aS,4R,6aR)-2-[3-fluoro-4-(trifluoromethyl)benzyl]octahydrocyclopenta[c]pyrrol-4-yl}-3-(trifluoromethyl)benzenesulfonamide], the IC50 is 1400 nM. On the same count and under the same terms, as for `O=C(N[C@H]1CC[C@H]2CN(S(=O)(=O)c3cccc(C(F)(F)F)c3)C[C@H]21)C(C1CCCCC1)C1CCCCC1` [Example 205, 2,2-dicyclohexyl-N-((3aS,4S,6aR)-2-{[3-(trifluoromethyl)phenyl]sulfonyl}octahydrocyclopenta[c]pyrrol-4-yl)acetamide], the figure is 3400 nM.

The test is the same for the next values; noted with them: IMR-32, @ 10 μM, 3 minute pre-incubation (*), read-out: percent inhibition.
Take `CC(C)C(C(=O)N[C@H]1CC[C@@H]2CN(C)C[C@@H]21)c1ccccc1` (stereo partly drawn) [Example 84, 3-methyl-N-[(3aR,4S,6aS)-2-methyloctahydrocyclopenta[c]pyrrol-4-yl]-2-phenylbutanamide]: the inhibition at 10 µM was 5.8%. Take `COc1cccc(CN2C[C@H]3CC[C@H](NC(=O)C(c4ccccc4)C(C)C)[C@H]3C2)c1` (stereo partly drawn) [Example 90, N-[(3aR,4S,6aS)-2-(3-methoxybenzyl)octahydrocyclopenta[c]pyrrol-4-yl]-3-methyl-2-phenylbutanamide]: the inhibition at 10 µM came to 83%.

With `CC(C)C(C(=O)N[C@H]1CC[C@@H]2CN(CCc3ccccc3)C[C@@H]21)c1ccccc1` (stereo partly drawn) [Example 104, 3-methyl-2-phenyl-N-[(3aR,4S,6aS)-2-(2-phenylethyl)octahydrocyclopenta[c]pyrrol-4-yl]butanamide], the inhibition at 10 µM is 79%.

These data come from patent US8129417B2, “Substituted octahydrocyclopenta[C]pyrrol-4-amines as calcium channel blockers” (Abbott Laboratories, priority 2008, dated 2012).
